What was measured:
[1] = Compound cytotoxicity, XTT-based colorimetric assay; assay type: cell-based; settings: human; uninfected MT2 cells, day 4, XTT; read-out: CC50
Method in brief: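 CC50 derived from XTT colorimetric signal measured on day 4 in MT2 cells that were not infected. All other steps followed the antiviral assay protocol.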

[2] = tested on: recombinant NL4-3 virus (nef section replaced with Renilla luciferase gene) in MT-2 cells; test: HIV cell culture assay (antiviral activity, luciferase readout); assay type: cell-based; settings: Renilla, NL43, MT-2 cells infected for 4-5 days with recombinant NL4-3 Renilla luciferase virus
Method in brief: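 The reporter virus was produced by transfecting 293T cells with the NL4-3 nef/Renilla luciferase proviral clone. MT-2 cells were infected for 4–5 days with serial compound dilutions present. Luciferase was read with a live-cell substrate, and EC50 came from the exponential median-effect equation.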

Compound: Cc1cc(C2(F)CCC(F)(F)CC2)nc2nc([C@H](Cc3cc(F)cc(F)c3)NC(=O)Cn3nc(C4CC4)c4c3C[C@@H]3C[C@H]43)n(-c3ccc(Cl)c4c(NS(C)(=O)=O)nn(CCN5C[C@H]6CC[C@@H](C5)O6)c34)c(=O)c12 (atropisomer, axis not shown; (P)) [Example 592, N-[(1S)-1-[(3P)-3-(4-chloro-3-methanesulfonamido-1-{2-[(1R,5S)-8-oxa-3-azabicyclo[3.2.1]octan-3-yl]ethyl}-1H-indazol-7-yl)-5-methyl-4-oxo-7-(1,4,4-trifluorocyclohexyl)-3H,4H-pyrido[2,3-d]pyrimidin-2-yl]-2-(3,5-difluorophenyl)ethyl]-2-[(2S,4S)-9-cyclopropyl-7,8-diazatricyclo[4.3.0.0^2,^4]nona-1(6),8-dien-7-yl]acetamide]
- CC50 at 4 days [1]: > 20 nM
- EC50 [2]: 0.006 nM

Compound: COCCCn1nc(NS(C)(=O)=O)c2c(Cl)ccc(-n3c([C@H](Cc4cc(F)cc(F)c4)NC(=O)Cn4nc(C(F)F)c5c4C(F)(F)[C@@H]4C[C@H]54)nc4nc(C5CCC(F)(F)CC5)cc(NCCN5CCN(C)CC5)c4c3=O)c21 (atropisomer, axis not shown; (P)) [Example 535, N-[(1S)-1-[(3P)-3-[4-chloro-3-methanesulfonamido-1-(3-methoxypropyl)-1H-indazol-7-yl]-7-(4,4-difluorocyclohexyl)-5-{[2-(4-methylpiperazin-1-yl)ethyl]amino}-4-oxo-3H,4H-pyrido[2,3-d]pyrimidin-2-yl]-2-(3,5-difluorophenyl)ethyl]-2-[(2S,4R)-9-(difluoromethyl)-5,5-difluoro-7,8-diazatricyclo[4.3.0.0^2,^4]nona-1(6),8-dien-7-yl]acetamide]
- CC50 at 4 days [1]: > 20 nM
- EC50 [2]: 0.057 nM

Compound: CS(=O)(=O)Nc1nn(CCN2C[C@H](F)C[C@H](F)C2)c2c(-n3c([C@H](Cc4cc(F)cc(F)c4)NC(=O)Cn4nc(C5CC5)c5c4C[C@@H]4C[C@H]54)nc4nc(C5CCC(F)(F)CC5)cc(C5CC5)c4c3=O)ccc(Cl)c12 (atropisomer, axis not shown; (P)) [Example 327, N-[(1S)-1-[(3P)-3-(4-chloro-1-{2-[(3R,5S)-3,5-difluoropiperidin-1-yl]ethyl}-3-methanesulfonamido-1H-indazol-7-yl)-5-cyclopropyl-7-(4,4-difluorocyclohexyl)-4-oxo-3H,4H-pyrido[2,3-d]pyrimidin-2-yl]-2-(3,5-difluorophenyl)ethyl]-2-[(2S,4S)-9-cyclopropyl-7,8-diazatricyclo[4.3.0.0^2,^4]nona-1(6),8-dien-7-yl]acetamide]
- CC50 at 4 days [1]: > 50 nM
- EC50 [2]: 0.008 nM

Compound: Cc1cc(C2(F)CCC(F)(F)CC2)nc2nc([C@H](Cc3cc(F)cc(F)c3)NC(=O)Cn3nc(C4CC4)c4c3C[C@@H]3C[C@H]43)n(-c3ccc(Cl)c4c(NS(C)(=O)=O)nn(CCN5CCO[C@@H](C(C)C)C5)c34)c(=O)c12 (atropisomer, axis not shown; (P)) [Example 581, N-[(1S)-1-[(3P)-3-(4-chloro-3-methanesulfonamido-1-{2-[(2S)-2-(propan-2-yl)morpholin-4-yl]ethyl}-1H-indazol-7-yl)-5-methyl-4-oxo-7-(1,4,4-trifluorocyclohexyl)-3H,4H-pyrido[2,3-d]pyrimidin-2-yl]-2-(3,5-difluorophenyl)ethyl]-2-[(2S,4S)-9-cyclopropyl-7,8-diazatricyclo[4.3.0.0^2,^4]nona-1(6),8-dien-7-yl]acetamide]
- CC50 at 4 days [1]: > 20 nM
- EC50 [2]: 0.015 nM

Compound: CS(=O)(=O)Nc1nn(CCN2C[C@H](F)C[C@H](F)C2)c2c(-n3c([C@H](Cc4cc(F)cc(F)c4)NC(=O)Cn4nc(C(F)F)c5c4C(F)(F)[C@@H]4C[C@H]54)nc4nc(C5CCC(F)(F)CC5)cc(CF)c4c3=O)ccc(Cl)c12 (atropisomer, axis not shown; (P)) [Example 512, N-[(1S)-1-[(3P)-3-(4-chloro-1-{2-[(3R,5S)-3,5-difluoropiperidin-1-yl]ethyl}-3-methanesulfonamido-1H-indazol-7-yl)-7-(4,4-difluorocyclohexyl)-5-(fluoromethyl)-4-oxo-3H,4H-pyrido[2,3-d]pyrimidin-2-yl]-2-(3,5-difluorophenyl)ethyl]-2-[(2S,4R)-9-(difluoromethyl)-5,5-difluoro-7,8-diazatricyclo[4.3.0.0^2,^4]nona-1(6),8-dien-7-yl]acetamide]
- CC50 at 4 days [1]: > 20 nM
- EC50 [2]: 0.006 nM

Compound: Cc1cc(C2CCC(F)(F)CC2)nc2nc([C@H](Cc3cc(F)cc(F)c3)NC(=O)Cn3nc(C4CC4)c4c3C[C@@H]3C[C@H]43)n(-c3ccc(Cl)c4c(NS(C)(=O)=O)nn([C@@H](C)CN5CC(C)(C)OC(C)(C)C5)c34)c(=O)c12 (relative stereo) [Example 724, N-[(1S)-1-[(3P)-3-{4-chloro-3-methanesulfonamido-1-[(2S)-1-(2,2,6,6-tetramethylmorpholin-4-yl)propan-2-yl]-1H-indazol-7-yl}-7-(4,4-difluorocyclohexyl)-5-methyl-4-oxo-3H,4H-pyrido[2,3-d]pyrimidin-2-yl]-2-(3,5-difluorophenyl)ethyl]-2-[(2R*,4R*)-9-cyclopropyl-7,8-diazatricyclo[4.3.0.0^2,^4]nona-1(6),8-dien-7-yl]acetamide]
- CC50 at 4 days [1]: > 20 nM
- EC50 [2]: 0.036 nM

Compound: CS(=O)(=O)Nc1nn(CCN2CCC(F)(F)CC2)c2c(-n3c([C@H](Cc4cc(F)cc(F)c4)NC(=O)Cn4nc(C5CC5)c5c4C[C@@H]4C[C@H]54)nc4nc(C5CCC(F)(F)CC5)c(F)cc4c3=O)ccc(Cl)c12 (atropisomer, axis not shown; (P)) [Example 239, N-[(1S)-1-[(3P)-3-{4-chloro-1-[2-(4,4-difluoropiperidin-1-yl)ethyl]-3-methanesulfonamido-1H-indazol-7-yl}-7-(4,4-difluorocyclohexyl)-6-fluoro-4-oxo-3H,4H-pyrido[2,3-d]pyrimidin-2-yl]-2-(3,5-difluorophenyl)ethyl]-2-[(2S,4S)-9-cyclopropyl-7,8-diazatricyclo[4.3.0.0^2,^4]nona-1(6),8-dien-7-yl]acetamide]
- CC50 at 4 days [1]: > 50 nM
- EC50 [2]: 0.021 nM

Compound: CS(=O)(=O)Nc1nn(CCN2CCC(C(F)(F)F)C2)c2c(-n3c([C@H](Cc4cc(F)cc(F)c4)NC(=O)Cn4nc(C(F)F)c5c4C(F)(F)[C@@H]4C[C@H]54)nc4nc(C5CCC(F)(F)CC5)ccc4c3=O)ccc(Cl)c12 (stereo partly drawn) [Example 199, N-[(1S)-1-[(3P)-3-(4-chloro-3-methanesulfonamido-1-{2-[3-(trifluoromethyl)pyrrolidin-1-yl]ethyl}-1H-indazol-7-yl)-7-(4,4-difluorocyclohexyl)-4-oxo-3H,4H-pyrido[2,3-d]pyrimidin-2-yl]-2-(3,5-difluorophenyl)ethyl]-2-[(2S,4R)-9-(difluoromethyl)-5,5-difluoro-7,8-diazatricyclo[4.3.0.0^2,^4]nona-1(6),8-dien-7-yl]acetamide]
- CC50 at 4 days [1]: > 50 nM
- EC50 [2]: 0.023 nM

Compound: Cc1cc(C2CCC(F)(F)CC2)nc2nc([C@H](Cc3cc(F)cc(F)c3)NC(=O)Cn3nc(C(F)(F)F)c4c3C(F)(F)[C@@H]3C[C@H]43)n(-c3ccc(Cl)c4c(NS(C)(=O)=O)nn(CCN5CCOCC5)c34)c(=O)c12 (atropisomer, axis not shown; (P)) [Example 116, N-[(1S)-1-[(3P)-3-{4-chloro-3-methanesulfonamido-1-[2-(morpholin-4-yl)ethyl]-1H-indazol-7-yl}-7-(4,4-difluorocyclohexyl)-5-methyl-4-oxo-3H,4H-pyrido[2,3-d]pyrimidin-2-yl]-2-(3,5-difluorophenyl)ethyl]-2-[(2S,4R)-5,5-difluoro-9-(trifluoromethyl)-7,8-diazatricyclo[4.3.0.0^2,^4]nona-1(6),8-dien-7-yl]acetamide]
- CC50 at 4 days [1]: > 50 nM
- EC50 [2]: 0.012 nM

Compound: CC(C)S(=O)(=O)N1CCN(CCn2nc(NS(C)(=O)=O)c3c(Cl)ccc(-n4c([C@H](Cc5cc(F)cc(F)c5)NC(=O)Cn5nc(C(F)F)c6c5C(F)(F)[C@@H]5C[C@H]65)nc5nc(C6CCC(F)(F)CC6)ccc5c4=O)c32)CC1 (atropisomer, axis not shown; (P)) [Example 195, N-[(1S)-1-[(3P)-3-(4-chloro-3-methanesulfonamido-1-{2-[4-(propane-2-sulfonyl)piperazin-1-yl]ethyl}-1H-indazol-7-yl)-7-(4,4-difluorocyclohexyl)-4-oxo-3H,4H-pyrido[2,3-d]pyrimidin-2-yl]-2-(3,5-difluorophenyl)ethyl]-2-[(2S,4R)-9-(difluoromethyl)-5,5-difluoro-7,8-diazatricyclo[4.3.0.0^2,^4]nona-1(6),8-dien-7-yl]acetamide]
- CC50 at 4 days [1]: > 50 nM
- EC50 [2]: 0.037 nM

Compound: Cc1cc(C2(F)CCC(F)(F)CC2)nc2nc([C@H](Cc3cc(F)cc(F)c3)NC(=O)Cn3nc(C4CC4)c4c3C[C@@H]3C[C@H]43)n(-c3ccc(Cl)c4c(NS(C)(=O)=O)nn(CCc5cccnc5)c34)c(=O)c12 (relative stereo) [Example 741, N-[(1S)-1-[(3P)-3-{4-chloro-3-methanesulfonamido-1-[2-(pyridin-3-yl)ethyl]-1H-indazol-7-yl}-5-methyl-4-oxo-7-(1,4,4-trifluorocyclohexyl)-3H,4H-pyrido[2,3-d]pyrimidin-2-yl]-2-(3,5-difluorophenyl)ethyl]-2-[(2R*,4R*)-9-cyclopropyl-7,8-diazatricyclo[4.3.0.0^2,^4]nona-1(6),8-dien-7-yl]acetamide]
- CC50 at 4 days [1]: > 20 nM
- EC50 [2]: 0.04 nM
